# From ChEMBL document CHEMBL4270532, “Molecular dynamics simulations of viral neuraminidase inhibitors with the human neuraminidase enzymes: Insights into isoenzyme selectivity” (Bioorg Med Chem, 2018)
# Tests used:
# [1] = molecular target: T1, Sialidase-1 (Homo sapiens, UniProt Q99519); test: Inhibition of recombinant His6-tagged human neuraminidase 1 expressed in HEK293 cells using 4MU-NANA as substrate preincubated for 15 mins followed by substrate addition measured after 30 mins by fluorescence analysis
# [2] = molecular target: T2, Sialidase-4 (Homo sapiens, UniProt Q8WWR8); test: Inhibition of MBP-fused recombinant human neuraminidase 4 expressed in Escherichia coli using 4MU-NANA as substrate preincubated for 15 mins followed by substrate addition measured every 1 min for 30 mins by fluorescence analysis
# T2 sequence (Q8WWR8 whole entry): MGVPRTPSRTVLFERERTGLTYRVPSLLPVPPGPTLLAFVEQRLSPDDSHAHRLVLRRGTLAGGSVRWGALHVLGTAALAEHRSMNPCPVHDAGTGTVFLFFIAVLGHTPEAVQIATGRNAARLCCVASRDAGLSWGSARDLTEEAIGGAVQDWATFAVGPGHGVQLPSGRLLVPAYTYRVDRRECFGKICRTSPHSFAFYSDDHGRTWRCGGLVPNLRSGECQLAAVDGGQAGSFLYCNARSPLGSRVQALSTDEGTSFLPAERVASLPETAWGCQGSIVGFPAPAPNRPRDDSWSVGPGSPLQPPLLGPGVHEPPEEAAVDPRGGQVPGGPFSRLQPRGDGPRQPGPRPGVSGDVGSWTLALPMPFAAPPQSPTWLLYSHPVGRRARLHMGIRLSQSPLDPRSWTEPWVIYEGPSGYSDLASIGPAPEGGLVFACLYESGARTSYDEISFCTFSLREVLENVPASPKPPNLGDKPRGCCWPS
# [3] = molecular target: T3, Sialidase-3 (Homo sapiens, UniProt Q9UQ49); test: Inhibition of MBP-fused recombinant human neuraminidase 3 expressed in Escherichia coli using 4MU-NANA as substrate preincubated for 15 mins followed by substrate addition measured after 30 mins by fluorescence analysis
# T3 sequence (Q9UQ49 whole entry): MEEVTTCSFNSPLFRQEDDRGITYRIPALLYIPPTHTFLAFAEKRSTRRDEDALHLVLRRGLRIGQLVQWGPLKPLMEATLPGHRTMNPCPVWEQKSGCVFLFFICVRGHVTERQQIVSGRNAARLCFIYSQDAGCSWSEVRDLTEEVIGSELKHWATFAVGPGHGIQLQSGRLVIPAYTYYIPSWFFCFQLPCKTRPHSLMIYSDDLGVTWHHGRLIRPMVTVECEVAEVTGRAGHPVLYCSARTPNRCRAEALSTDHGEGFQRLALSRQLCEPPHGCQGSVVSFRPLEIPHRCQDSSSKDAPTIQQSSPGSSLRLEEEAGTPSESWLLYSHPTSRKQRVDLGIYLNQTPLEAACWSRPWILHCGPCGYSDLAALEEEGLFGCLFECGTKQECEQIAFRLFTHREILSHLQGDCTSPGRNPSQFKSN
# [4] = molecular target: T1, Sialidase-1; test: Inhibition of recombinant His6-tagged human neuraminidase 1 expressed in HEK293 cells using 4MU-NANA as substrate preincubated for 15 mins followed by substrate addition measured every 1 min for 30 mins by fluorescence analysis
# [5] = molecular target: T3, Sialidase-3; test: Inhibition of MBP-fused recombinant human neuraminidase 3 expressed in Escherichia coli using 4MU-NANA as substrate preincubated for 15 mins followed by substrate addition measured every 1 min for 30 mins by fluorescence analysis
# [6] = molecular target: T2, Sialidase-4; test: Inhibition of MBP-fused recombinant human neuraminidase 4 expressed in Escherichia coli using 4MU-NANA as substrate preincubated for 15 mins followed by substrate addition measured after 30 mins by fluorescence analysis
Structure (SMILES),IC50 [1] [µM],Ki [2],IC50 [3] [µM],Ki [4],Ki [5],IC50 [6] [µM]
CC(=O)N[C@H]1[C@H]([C@H](O)[C@H](O)CO)OC(O)(C(=O)O)C[C@@H]1O (some centres undefined),> 500,Not Active,> 500,Not Active,Not Active,> 500
CC(=O)N[C@H]1[C@H]([C@H](O)[C@H](O)CO)OC(C(=O)O)=C[C@@H]1NC(=N)N [ZANAMIVIR],,,,Not Active,,
CCOC(=O)C1=C[C@@H](OC(CC)CC)[C@H](NC(C)=O)[C@@H](N)C1 [OSELTAMIVIR],> 500,Not Active,> 500,Not Active,Not Active,> 500
CCC(CC)[C@H](NC(C)=O)[C@@H]1[C@H](O)[C@@H](C(=O)O)C[C@H]1NC(=N)N [PERAMIVIR ANHYDROUS],> 500,Not Active,> 500,Not Active,Not Active,> 500
